Measured values from PubChem BioAssay (NCI).
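48-hour exposure; five concentrations; linearly interpolated endpoints. At the TGI there is no net growth.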

Experiments:
Assay in all cases: growth of human tumour cells (NCI), 48 h
786-0 renal = system: 786-0 renal
A498 renal = system: A498 renal
A549 NSCLC = system: A549 NSCLC
ACHN renal = system: ACHN renal
CAKI-1 renal = system: CAKI-1 renal
CCRF-CEM leukemia = system: CCRF-CEM leukemia
COLO 205 colon = system: COLO 205 colon
DLD-1 colon = system: DLD-1 colon
DMS 114 small cell lung = system: DMS 114 small cell lung
DMS 273 small cell lung = system: DMS 273 small cell lung
EKVX NSCLC = system: EKVX NSCLC
HCC-2998 colon = system: HCC-2998 colon
HCT-116 colon = system: HCT-116 colon
HCT-15 colon = system: HCT-15 colon
HL-60(TB) leukemia = system: HL-60(TB) leukemia
HOP-18 NSCLC = system: HOP-18 NSCLC
HOP-62 NSCLC = system: HOP-62 NSCLC
HOP-92 NSCLC = system: HOP-92 NSCLC
HT29 colon = system: HT29 colon
IGROV1 ovarian = system: IGROV1 ovarian
K-562 leukemia = system: K-562 leukemia
KM12 colon = system: KM12 colon
KM20L2 colon = system: KM20L2 colon
LOX IMVI melanoma = system: LOX IMVI melanoma
LXFL 529 NSCLC = system: LXFL 529 NSCLC
M14 melanoma = system: M14 melanoma
M19-MEL melanoma = system: M19-MEL melanoma
MALME-3M melanoma = system: MALME-3M melanoma
NCI-H226 lung = system: NCI-H226 lung
NCI-H23 lung = system: NCI-H23 lung
NCI-H460 lung = system: NCI-H460 lung
NCI-H522 lung = system: NCI-H522 lung
OVCAR-3 ovarian = system: OVCAR-3 ovarian
OVCAR-4 ovarian = system: OVCAR-4 ovarian
OVCAR-5 ovarian = system: OVCAR-5 ovarian
OVCAR-8 ovarian = system: OVCAR-8 ovarian
RPMI-8226 leukemia = system: RPMI-8226 leukemia
RXF 393 renal = system: RXF 393 renal
RXF-631 renal = system: RXF-631 renal
SF-268 CNS = system: SF-268 CNS
SF-295 CNS = system: SF-295 CNS
SF-539 CNS = system: SF-539 CNS
SK-MEL-2 melanoma = system: SK-MEL-2 melanoma
SK-MEL-28 melanoma = system: SK-MEL-28 melanoma
SK-MEL-5 melanoma = system: SK-MEL-5 melanoma
SK-OV-3 ovarian = system: SK-OV-3 ovarian
SNB-19 CNS = system: SNB-19 CNS
SNB-75 CNS = system: SNB-75 CNS
SNB-78 CNS = system: SNB-78 CNS
SW-620 colon = system: SW-620 colon
TK-10 renal = system: TK-10 renal
U251 CNS = system: U251 CNS
UACC-257 melanoma = system: UACC-257 melanoma
UACC-62 melanoma = system: UACC-62 melanoma
UO-31 renal = system: UO-31 renal
XF 498 CNS = system: XF 498 CNS
MOLT-4 leukemia = system: MOLT-4 leukemia
SN12C renal = system: SN12C renal
SR leukemia = system: SR leukemia

O=C(O)C(CO)N=Cc1nc(-c2ccccc2)oc1O (stereo not given) was tested, and the TGI (786-0 renal) was > 100 µM, the TGI (A498 renal) was > 100 µM and the TGI (A549 NSCLC) was > 100 µM. For the same compound, the TGI (ACHN renal) was > 100 µM, the TGI (CAKI-1 renal) was > 100 µM and the TGI (CCRF-CEM leukemia) was > 100 µM. For the same compound, the TGI (COLO 205 colon) was > 100 µM, the TGI (DLD-1 colon) was > 100 µM and the TGI (DMS 114 small cell lung) was > 100 µM. The TGI (DMS 273 small cell lung) was > 100 µM, the TGI (EKVX NSCLC) was > 100 µM and the TGI (HCC-2998 colon) was > 100 µM. The TGI (HCT-116 colon) was > 100 µM, the TGI (HCT-15 colon) was > 100 µM and the TGI (HL-60(TB) leukemia) was > 100 µM. The TGI (HOP-18 NSCLC) was > 100 µM, the TGI (HOP-62 NSCLC) was > 100 µM and the TGI (HOP-92 NSCLC) was > 100 µM. For the same compound, the TGI (HT29 colon) was > 100 µM, the TGI (IGROV1 ovarian) was > 100 µM and the TGI (K-562 leukemia) was > 100 µM. For the same compound, the TGI (KM12 colon) was > 100 µM, the TGI (KM20L2 colon) was > 100 µM and the TGI (LOX IMVI melanoma) was > 100 µM. The TGI (LXFL 529 NSCLC) was > 100 µM, the TGI (M14 melanoma) was > 100 µM and the TGI (M19-MEL melanoma) was > 100 µM. For the same compound, the TGI (MALME-3M melanoma) was > 100 µM, the TGI (NCI-H226 lung) was > 100 µM and the TGI (NCI-H23 lung) was > 100 µM. For the same compound, the TGI (NCI-H460 lung) was > 100 µM, the TGI (NCI-H522 lung) was > 100 µM and the TGI (OVCAR-3 ovarian) was > 100 µM. For the same compound, the TGI (OVCAR-4 ovarian) was > 100 µM, the TGI (OVCAR-5 ovarian) was > 100 µM and the TGI (OVCAR-8 ovarian) was > 100 µM. For the same compound, the TGI (RPMI-8226 leukemia) was > 100 µM, the TGI (RXF 393 renal) was > 100 µM and the TGI (RXF-631 renal) was > 100 µM. The TGI (SF-268 CNS) was > 100 µM, the TGI (SF-295 CNS) was > 100 µM and the TGI (SF-539 CNS) was > 100 µM. For the same compound, the TGI (SK-MEL-2 melanoma) was > 100 µM, the TGI (SK-MEL-28 melanoma) was > 100 µM and the TGI (SK-MEL-5 melanoma) was > 100 µM. For the same compound, the TGI (SK-OV-3 ovarian) was > 100 µM, the TGI (SNB-19 CNS) was > 100 µM and the TGI (SNB-75 CNS) was > 100 µM. For the same compound, the TGI (SNB-78 CNS) was > 100 µM, the TGI (SW-620 colon) was > 100 µM and the TGI (TK-10 renal) was > 100 µM. For the same compound, the TGI (U251 CNS) was > 100 µM, the TGI (UACC-257 melanoma) was > 100 µM and the TGI (UACC-62 melanoma) was > 100 µM. The TGI (UO-31 renal) was > 100 µM and the TGI (XF 498 CNS) was > 100 µM.
In the case of CCSC1=CC(Cc2ccc(OC)cc2)N(C(=O)OC)C1 (stereo not given), the TGI (786-0 renal) is reported as > 100 µM, the TGI (A498 renal) is reported as > 100 µM and the TGI (A549 NSCLC) is reported as > 100 µM. The TGI (ACHN renal) was > 100 µM, the TGI (CAKI-1 renal) was > 100 µM and the TGI (CCRF-CEM leukemia) was > 100 µM. For the same compound, the TGI (COLO 205 colon) was > 100 µM, the TGI (DLD-1 colon) was > 100 µM and the TGI (DMS 114 small cell lung) was 73.7 µM. For the same compound, the TGI (DMS 273 small cell lung) was > 100 µM, the TGI (EKVX NSCLC) was > 100 µM and the TGI (HCC-2998 colon) was > 100 µM. For the same compound, the TGI (HCT-116 colon) was > 100 µM, the TGI (HCT-15 colon) was > 100 µM and the TGI (HL-60(TB) leukemia) was 60.1 µM. The TGI (HOP-18 NSCLC) was > 100 µM, the TGI (HOP-62 NSCLC) was > 100 µM and the TGI (HOP-92 NSCLC) was > 100 µM. For the same compound, the TGI (HT29 colon) was > 100 µM, the TGI (IGROV1 ovarian) was > 100 µM and the TGI (K-562 leukemia) was > 100 µM. The TGI (KM12 colon) was > 100 µM, the TGI (KM20L2 colon) was > 100 µM and the TGI (LOX IMVI melanoma) was > 100 µM. The TGI (LXFL 529 NSCLC) was > 100 µM, the TGI (M14 melanoma) was > 100 µM and the TGI (M19-MEL melanoma) was > 100 µM. The TGI (MALME-3M melanoma) was > 100 µM, the TGI (MOLT-4 leukemia) was > 100 µM and the TGI (NCI-H226 lung) was > 100 µM. For the same compound, the TGI (NCI-H23 lung) was > 100 µM, the TGI (NCI-H460 lung) was > 100 µM and the TGI (NCI-H522 lung) was > 100 µM. For the same compound, the TGI (OVCAR-3 ovarian) was > 100 µM, the TGI (OVCAR-4 ovarian) was > 100 µM and the TGI (OVCAR-5 ovarian) was > 100 µM. For the same compound, the TGI (OVCAR-8 ovarian) was > 100 µM, the TGI (RXF 393 renal) was > 100 µM and the TGI (RXF-631 renal) was > 100 µM. For the same compound, the TGI (SF-268 CNS) was > 100 µM, the TGI (SF-295 CNS) was > 100 µM and the TGI (SF-539 CNS) was > 100 µM. The TGI (SK-MEL-2 melanoma) was > 100 µM, the TGI (SK-MEL-28 melanoma) was > 100 µM and the TGI (SK-MEL-5 melanoma) was > 100 µM. The TGI (SK-OV-3 ovarian) was > 100 µM, the TGI (SN12C renal) was > 100 µM and the TGI (SNB-19 CNS) was > 100 µM. For the same compound, the TGI (SNB-75 CNS) was > 100 µM, the TGI (SNB-78 CNS) was > 100 µM and the TGI (SR leukemia) was > 100 µM. For the same compound, the TGI (SW-620 colon) was > 100 µM, the TGI (TK-10 renal) was > 100 µM and the TGI (U251 CNS) was > 100 µM. The TGI (UACC-257 melanoma) was > 100 µM, the TGI (UACC-62 melanoma) was > 100 µM and the TGI (UO-31 renal) was > 100 µM. For the same compound, the TGI (XF 498 CNS) was > 100 µM.
For CCCCCCC1=NOC(C(c2cc[nH]c2)N(C)[C@H](C(=O)OC)C(C)C)C1 (stereo not given in full), the TGI (786-0 renal) was > 100 µM, the TGI (A498 renal) was > 100 µM and the TGI (A549 NSCLC) was > 100 µM. The TGI (ACHN renal) was > 100 µM, the TGI (CAKI-1 renal) was > 100 µM and the TGI (CCRF-CEM leukemia) was 53.9 µM. For the same compound, the TGI (COLO 205 colon) was 32.2 µM, the TGI (DLD-1 colon) was > 100 µM and the TGI (DMS 114 small cell lung) was > 100 µM. The TGI (DMS 273 small cell lung) was > 100 µM, the TGI (EKVX NSCLC) was > 100 µM and the TGI (HCC-2998 colon) was > 100 µM. For the same compound, the TGI (HCT-116 colon) was > 100 µM, the TGI (HL-60(TB) leukemia) was 63.7 µM and the TGI (HOP-18 NSCLC) was > 100 µM. For the same compound, the TGI (HOP-62 NSCLC) was > 100 µM, the TGI (HOP-92 NSCLC) was > 100 µM and the TGI (HT29 colon) was > 100 µM. The TGI (IGROV1 ovarian) was > 100 µM, the TGI (K-562 leukemia) was > 100 µM and the TGI (KM12 colon) was 63.6 µM. For the same compound, the TGI (KM20L2 colon) was > 100 µM, the TGI (LOX IMVI melanoma) was 74.6 µM and the TGI (LXFL 529 NSCLC) was > 100 µM. The TGI (M14 melanoma) was > 100 µM, the TGI (M19-MEL melanoma) was > 100 µM and the TGI (MALME-3M melanoma) was > 100 µM. The TGI (MOLT-4 leukemia) was 62.7 µM, the TGI (NCI-H226 lung) was > 100 µM and the TGI (NCI-H23 lung) was > 100 µM. For the same compound, the TGI (NCI-H522 lung) was 33.9 µM, the TGI (OVCAR-3 ovarian) was 77.6 µM and the TGI (OVCAR-4 ovarian) was > 100 µM. For the same compound, the TGI (OVCAR-5 ovarian) was > 100 µM, the TGI (OVCAR-8 ovarian) was > 100 µM and the TGI (RXF 393 renal) was > 100 µM. For the same compound, the TGI (RXF-631 renal) was > 100 µM, the TGI (SF-268 CNS) was > 100 µM and the TGI (SF-295 CNS) was > 100 µM. The TGI (SF-539 CNS) was > 100 µM, the TGI (SK-MEL-2 melanoma) was 65.9 µM and the TGI (SK-MEL-28 melanoma) was > 100 µM. The TGI (SK-MEL-5 melanoma) was > 100 µM, the TGI (SK-OV-3 ovarian) was > 100 µM and the TGI (SN12C renal) was 51.6 µM. The TGI (SNB-19 CNS) was > 100 µM, the TGI (SNB-75 CNS) was > 100 µM and the TGI (SNB-78 CNS) was 87.1 µM. The TGI (SR leukemia) was 91.6 µM, the TGI (SW-620 colon) was 68 µM and the TGI (TK-10 renal) was > 100 µM. For the same compound, the TGI (U251 CNS) was > 100 µM, the TGI (UACC-257 melanoma) was > 100 µM and the TGI (UACC-62 melanoma) was > 100 µM. The TGI (UO-31 renal) was > 100 µM and the TGI (XF 498 CNS) was > 100 µM.
